Reference: patent US10464922B2, “Metalloenzyme inhibitor compounds” (NQP 1598 LTD., priority 2015, dated 2019)
≈ marks a conversion by molar mass, not a printed value.

Columns and labels:
C. albicans (ATCC 90028) = assay: Minimum inhibitory concentration, in vitro broth microdilution assay (CLSI M27-A2); type: cell-based, Candida albicans; settings: Candida albicans, ATCC90028, 48 h, ATCC 90028; about 50% growth reduction; 2 days at 36° C.; range tested 8-0.0078 μg/mL; values given as ranges; read-out: Candida albicans MIC
Method in brief: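 Inoculum of 1×10^3 to 1×10^4 CFU/mL in RPMI-1640+MOPS, exposed to 11 two-fold serial compound concentrations at 2 percent final DMSO, per CLSI M27-A2. After 2 days at 36° C, wells scored visually for growth to give MIC; tested in duplicate.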

A. fumigatus = A. fumigatus MIC at 100% growth inhibition (CLSI M38-A2); type: cell-based, Aspergillus fumigatus; settings: Aspergillus fumigatus, 100% growth inhibition; range tested 8-0.0078 μg/mL; values given as ranges; read-out: Aspergillus fumigatus MIC
Experimental: A. fumigatus MICs were determined at 100% growth inhibition following CLSI guidelines at a concentration range of 8-0.0078 μg/mL (CLSI M38-A2).

Structure (SMILES)	MIC (C. albicans (ATCC 90028)) [µg/mL]	MIC (A. fumigatus) [µg/mL]
CC(C)n1ncn(-c2ccc(N3CCN(c4ccc(-c5ccc(C(F)(F)[C@](O)(Cn6cnnn6)c6ccc(F)cc6F)nc5)cc4)CC3)cc2)c1=O [Example 52, (R)-4-(4-(4-(4-(6-(2-(2,4-difluorophenyl)-1,1-difluoro-2-hydroxy-3-(1H-tetrazol-1-yl)propyl)pyridin-3-yl)phenyl)piperazin-1-yl)phenyl)-2-isopropyl-2,4-dihydro-3H-1,2,4-triazol-3-one]	0.0078 to 0.01 (≈ 0.0109 to 0.014 µM)	0.062 to 0.25 (≈ 0.0867 to 0.35 µM)
Cn1ncn(-c2ccc(N3CCN(c4ccc(-c5ccc(C(F)(F)[C@](O)(Cn6cnnn6)c6ccc(F)cc6F)nc5)cc4)CC3)cc2)c1=O [Example 53, (R)-4-(4-(4-(4-(6-(2-(2,4-difluorophenyl)-1,1-difluoro-2-hydroxy-3-(1H-tetrazol-1-yl)propyl)pyridin-3-yl)phenyl)piperazin-1-yl)phenyl)-2-methyl-2,4-dihydro-3H-1,2,4-triazol-3-one]	0.01 to 0.1 (≈ 0.0146 to 0.146 µM)	0.062 to 0.25 (≈ 0.0903 to 0.364 µM)
CCn1ncn(-c2ccc(N3CCN(c4ccc(-c5ccc(C(F)(F)[C@](O)(Cn6cnnn6)c6ccc(F)cc6F)nc5)cc4)CC3)cc2)c1=O [Example 54, (R)-4-(4-(4-(4-(6-(2-(2,4-difluorophenyl)-1,1-difluoro-2-hydroxy-3-(1H-tetrazol-1-yl)propyl)pyridin-3-yl)phenyl)piperazin-1-yl)phenyl)-2-ethyl-2,4-dihydro-3H-1,2,4-triazol-3-one]	0.01 to 0.1 (≈ 0.0143 to 0.143 µM)	0.062 to 0.25 (≈ 0.0885 to 0.357 µM)
CCC(C)n1ncn(-c2ccc(N3CCN(c4ccc(-c5ccc(C(F)(F)[C@](O)(Cn6cnnn6)c6ccc(F)cc6F)nc5)cc4)CC3)cc2)c1=O (stereo partly drawn) [Example 55, 2-(sec-butyl)-4-(4-(4-(4-(6-((R)-2-(2,4-difluorophenyl)-1,1-difluoro-2-hydroxy-3-(1H-tetrazol-1-yl)propyl)pyridin-3-yl)phenyl)piperazin-1-yl)phenyl)-2,4-dihydro-3H-1,2,4-triazol-3-one]	0.01 to 0.1 (≈ 0.0137 to 0.137 µM)	0.062 to 0.25 (≈ 0.0851 to 0.343 µM)
CC(O)c1ccc(N2CCN(c3ccc(-c4ccc(C(F)(F)[C@](O)(Cn5cnnn5)c5ccc(F)cc5F)nc4)cc3)CC2)cc1 (stereo partly drawn) [Example 56, (2R)-2-(2,4-difluorophenyl)-1,1-difluoro-1-(5-(4-(4-(4-(1-hydroxyethyl)phenyl)piperazin-1-yl)phenyl)pyridin-2-yl)-3-(1H-tetrazol-1-yl) propan-2-ol]	0.01 to 0.1 (≈ 0.0158 to 0.158 µM)	0.25 to 1 (≈ 0.395 to 1.58 µM)
CC[C@H](NC(=O)c1ccc(N2CCN(c3ccc(-c4ccc(C(F)(F)[C@](O)(Cn5cnnn5)c5ccc(F)cc5F)nc4)cc3)CC2)cc1)[C@H](C)O [Example 57, 4-(4-(4-(6-((R)-2-(2,4-difluorophenyl)-1,1-difluoro-2-hydroxy-3-(1H-tetrazol-1-yl)propyl)pyridin-3-yl)phenyl)piperazin-1-yl)-N-((2S,3S)-2-hydroxypentan-3-yl) benzamide]	0.01 to 0.1 (≈ 0.0139 to 0.139 µM)	0.25 to 1 (≈ 0.348 to 1.39 µM)
O=c1n(-c2ccc(N3CCN(c4ccc(-c5ccc(C(F)(F)[C@](O)(Cn6cnnn6)c6ccc(F)cc6F)nc5)cc4)CC3)cc2)cnn1CC(F)(F)F [Example 58, (R)-4-(4-(4-(4-(6-(2-(2,4-difluorophenyl)-1,1-difluoro-2-hydroxy-3-(1H-tetrazol-1-yl)propyl)pyridin-3-yl)phenyl)piperazin-1-yl)phenyl)-2-(2,2,2-trifluoroethyl)-2,4-dihydro-3H-1,2,4-triazol-3-one]	0.0078 to 0.01 (≈ 0.0103 to 0.0133 µM)	0.062 to 0.25 (≈ 0.0822 to 0.331 µM)
CCC(C)C(O)c1ccc(N2CCN(c3ccc(-c4ccc(C(F)(F)[C@](O)(Cn5cnnn5)c5ccc(F)cc5F)nc4)cc3)CC2)cc1 (stereo partly drawn) [Example 59, 1-(4-(4-(4-(6-((R)-2-(2,4-difluorophenyl)-1,1-difluoro-2-hydroxy-3-(1H-tetrazol-1-yl)propyl)pyridin-3-yl)phenyl)piperazin-1-yl)phenyl)-2-methylbutan-1-ol]	0.0078 to 0.01 (≈ 0.0115 to 0.0148 µM)	0.25 to 1 (≈ 0.37 to 1.48 µM)
O=c1[nH]ncn1-c1ccc(N2CCN(c3ccc(-c4ccc(C(F)(F)[C@](O)(Cn5cnnn5)c5ccc(F)cc5F)nc4)cc3)CC2)cc1 [Example 60, (R)-4-(4-(4-(4-(6-(2-(2,4-difluorophenyl)-1,1-difluoro-2-hydroxy-3-(1H-tetrazol-1-yl)propyl)pyridin-3-yl)phenyl)piperazin-1-yl)phenyl)-2,4-dihydro-3H-1,2,4-triazol-3-one]	0.0078 to 0.01 (≈ 0.0116 to 0.0149 µM)	0.25 to 1 (≈ 0.372 to 1.49 µM)
CN(C)CCn1ncn(-c2ccc(N3CCN(c4ccc(-c5ccc(C(F)(F)[C@](O)(Cn6cnnn6)c6ccc(F)cc6F)nc5)cc4)CC3)cc2)c1=O [Example 61, (R)-4-(4-(4-(4-(6-(2-(2,4-difluorophenyl)-1,1-difluoro-2-hydroxy-3-(1H-tetrazol-1-yl)propyl)pyridin-3-yl)phenyl)piperazin-1-yl)phenyl)-2-(2-(dimethylamino)ethyl)-2,4-dihydro-3H-1,2,4-triazol-3-one]	0.01 to 0.1 (≈ 0.0134 to 0.134 µM)	0.25 to 1 (≈ 0.336 to 1.34 µM)
OC(c1ccc(N2CCN(c3ccc(-c4ccc(C(F)(F)[C@](O)(Cn5cnnn5)c5ccc(F)cc5F)nc4)cc3)CC2)s1)C(F)(F)F (stereo partly drawn) [Example 62, (2R)-2-(2,4-difluorophenyl)-1,1-difluoro-3-(1H-tetrazol-1-yl)-1-(5-(4-(4-(5-(2,2,2-trifluoro-1-hydroxyethyl)thiophen-2-yl)piperazin-1-yl)phenyl)pyridin-2-yl) propan-2-ol]	0.0078 to 0.01 (≈ 0.0112 to 0.0144 µM)	0.25 to 1 (≈ 0.36 to 1.44 µM)
CCC(C)C(O)c1ccc(N2CCN(c3ccc(-c4ccc(C(F)(F)[C@](O)(Cn5cnnn5)c5ccc(F)cc5F)nc4)cc3)CC2)cn1 (stereo partly drawn) [Example 65, 1-(5-(4-(4-(6-((R)-2-(2,4-difluorophenyl)-1,1-difluoro-2-hydroxy-3-(1H-tetrazol-1-yl)propyl)pyridin-3-yl)phenyl)piperazin-1-yl)pyridin-2-yl)-2-methylbutan-1-ol]	0.0078 to 0.01 (≈ 0.0115 to 0.0148 µM)	0.25 to 1 (≈ 0.369 to 1.48 µM)
CCC(CC)n1ncn(-c2ccc(N3CCN(c4ccc(-c5ccc(C(F)(F)[C@](O)(Cn6cnnn6)c6ccc(F)cc6F)nc5)cc4)CC3)cc2)c1=O [Example 66, (R)-4-(4-(4-(4-(6-(2-(2,4-difluorophenyl)-1,1-difluoro-2-hydroxy-3-(1H-tetrazol-1-yl)propyl)pyridin-3-yl)phenyl)piperazin-1-yl)phenyl)-2-(pentan-3-yl)-2,4-dihydro-3H-1,2,4-triazol-3-one]	0.0078 to 0.01 (≈ 0.0105 to 0.0135 µM)	0.25 to 1 (≈ 0.337 to 1.35 µM)
CC(C)(O)Cn1ncn(-c2ccc(N3CCN(c4ccc(-c5ccc(C(F)(F)[C@](O)(Cn6cnnn6)c6ccc(F)cc6F)nc5)cc4)CC3)cc2)c1=O [Example 67, (R)-4-(4-(4-(4-(6-(2-(2,4-difluorophenyl)-1,1-difluoro-2-hydroxy-3-(1H-tetrazol-1-yl)propyl)pyridin-3-yl)phenyl)piperazin-1-yl)phenyl)-2-(2-hydroxy-2-methylpropyl)-2,4-dihydro-3H-1,2,4-triazol-3-one]	0.0078 to 0.01 (≈ 0.0105 to 0.0134 µM)	0.062 to 0.25 (≈ 0.0832 to 0.336 µM)
CC(C)C(C)C(O)c1ccc(N2CCN(c3ccc(-c4ccc(C(F)(F)[C@](O)(Cn5cnnn5)c5ccc(F)cc5F)nc4)cc3)CC2)cn1 (stereo partly drawn) [Example 68, 1-(5-(4-(4-(6-((R)-2-(2,4-difluorophenyl)-1,1-difluoro-2-hydroxy-3-(1H-tetrazol-1-yl)propyl)pyridin-3-yl)phenyl)piperazin-1-yl)pyridin-2-yl)-2,3-dimethylbutan-1-ol]	0.0078 to 0.01 (≈ 0.0113 to 0.0145 µM)	0.25 to 1 (≈ 0.362 to 1.45 µM)
CC(C)c1nc2cc(N3CCN(c4ccc(-c5ccc(C(F)(F)[C@](O)(Cn6cnnn6)c6ccc(F)cc6F)nc5)cc4)CC3)ccc2[nH]1 [Example 69, (R)-2-(2,4-difluorophenyl)-1,1-difluoro-1-(5-(4-(4-(2-isopropyl-1H-benzo [d]imidazol-5-yl)piperazin-1-yl)phenyl)pyridin-2-yl)-3-(1H-tetrazol-1-yl) propan-2-ol]	0.01 to 0.1 (≈ 0.0149 to 0.149 µM)	> 8
CCC(c1nc2cc(N3CCN(c4ccc(-c5ccc(C(F)(F)[C@](O)(Cn6cnnn6)c6ccc(F)cc6F)nc5)cc4)CC3)ccc2[nH]1)C(C)O (stereo partly drawn) [Example 71, 3-(5-(4-(4-(6-((R)-2-(2,4-difluorophenyl)-1,1-difluoro-2-hydroxy-3-(1H-tetrazol-1-yl)propyl)pyridin-3-yl)phenyl)piperazin-1-yl)-1H-benzo [d]imidazol-2-yl)pentan-2-ol]	0.0078 to 0.01 (≈ 0.0109 to 0.014 µM)	0.25 to 1 (≈ 0.349 to 1.4 µM)
CC(C)(O)c1ccc(N2CCN(c3ccc(-c4ccc(C(F)(F)[C@](O)(Cn5cnnn5)c5ccc(F)cc5F)nc4)cc3)CC2)cc1 [Example 72, (R)-2-(2,4-difluorophenyl)-1,1-difluoro-1-(5-(4-(4-(4-(2-hydroxypropan-2-yl)phenyl)piperazin-1-yl)phenyl)pyridin-2-yl)-3-(1H-tetrazol-1-yl) propan-2-ol]	0.0078 to 0.01 (≈ 0.012 to 0.0154 µM)	0.25 to 1 (≈ 0.386 to 1.54 µM)
N#Cc1ccc2nc(N3CCN(c4ccc(-c5ccc(C(F)(F)[C@](O)(Cn6cnnn6)c6ccc(F)cc6F)nc5)cc4)CC3)sc2c1 [Example 73, (R)-2-(4-(4-(6-(2-(2,4-difluorophenyl)-1,1-difluoro-2-hydroxy-3-(1H-tetrazol-1-yl)propyl)pyridin-3-yl)phenyl)piperazin-1-yl) benzo [d] thiazole-6-carbonitrile]	0.0078 to 0.01 (≈ 0.0116 to 0.0149 µM)	> 8
N#Cc1ccc2nc(N3CCN(c4ccc(-c5ccc(C(F)(F)[C@](O)(Cn6cnnn6)c6ccc(F)cc6F)nc5)cc4)CC3)[nH]c2c1 [Example 74, (R)-2-(4-(4-(6-(2-(2,4-difluorophenyl)-1,1-difluoro-2-hydroxy-3-(1H-tetrazol-1-yl)propyl)pyridin-3-yl)phenyl)piperazin-1-yl)-1H-benzo [d] imidazole-6-carbonitrile]	0.0078 to 0.01 (≈ 0.0119 to 0.0153 µM)	> 8
